These results are taken from US11878994B1, “Compositions for treatment of inflammation” (Metro International Biotech, LLC, priority 2021, dated 2024).

For one assay, the system named is Jurkat cells. Put plainly: NAD Elevation Assay (NAD Cellular Assay), Jurkat cells. The assay is classed as cell-based. The settings on record: @ 1 mM, NAD normalized to total protein, multiple of NAD level in untreated cells. The procedure:
Compounds were tested in an NAD Cellular Assay according to the following protocol. Jurkat cells (50,000 per in 100 microliters of RPMI media) were added to wells of a 96 well, conical bottomed plate. The cells were allowed to recover for 3 h in culture. A 16 microliter aliquot of a 100 mM compound stock solution was diluted with 784 microliters of medium and 10% FBS to give 800 microliters of a 2 mM compound treatment solution. The compound treatment solution was added to the cells for a final concentration of 1 mM compound (n=6 wells for each compound.) As a parallel control, nicotinamide mononucleotide (NMN) was added to cells at a final concentration of 2 mM (n=6). The plates were incubated for 24 hours, then spun at 1000 rpm for 10 min. The medium was removed, then the cells were washed with fresh PBS and spun again. The PBS medium was removed, then the cells were washed one more time with PBS and spun. The liquid was removed from each well via pipette, avoiding touching the cell pellet. The cells were lysed with 75 microliters of 0.5% DTAB. […] The NAD concentration in each well was determined using a commercially available assay according to the kit instructions (e.g. Promega NAD/NADH-Glo™ Assay.) The Pierce BCA protein assay was run according to the kit instructions (e.g. ThermoScientific Catalog number 23225). […]

A further assay deals with NDF Cells. The experiment in a line: NAD Elevation Assay (NAD Cellular Assay), NDF cells. The assay is classed as cell-based. The settings on record: @ 0.25 mM, multiple of NAD level in untreated cells. The procedure:
Compounds were tested in an NAD Cellular Assay according to the following protocol. Jurkat cells (50,000 per in 100 microliters of RPMI media) were added to wells of a 96 well, conical bottomed plate. The cells were allowed to recover for 3 h in culture. A 16 microliter aliquot of a 100 mM compound stock solution was diluted with 784 microliters of medium and 10% FBS to give 800 microliters of a 2 mM compound treatment solution. The compound treatment solution was added to the cells for a final concentration of 1 mM compound (n=6 wells for each compound.) As a parallel control, nicotinamide mononucleotide (NMN) was added to cells at a final concentration of 2 mM (n=6). The plates were incubated for 24 hours, then spun at 1000 rpm for 10 min. The medium was removed, then the cells were washed with fresh PBS and spun again. The PBS medium was removed, then the cells were washed one more time with PBS and spun. The liquid was removed from each well via pipette, avoiding touching the cell pellet. The cells were lysed with 75 microliters of 0.5% DTAB. 25 microliters of the lysate was added to each of two flat bottomed plates. One plate was used for a BCA protein assay (clear), and the other plate was used for the NAD assay (clear bottom, white walled). The NAD concentration in each well was determined using a commercially available assay according to the kit instructions (e.g. Promega NAD/NADH-Glo™ Assay.) The Pierce BCA protein assay was run according to the kit instructions (e.g. ThermoScientific Catalog number 23225). NAD levels were normalized to total protein and reported as a multiple of the NAD level in untreated cells.
Assays with other cell types were run similarly, using the appropriate compound and NMN dilutions. Cell counts were adjusted as necessary to provide a signal within the reading range of the protein and NAD assay kits.

SMILES strings stand for the structures.

Turning to `Cn1c(=O)c2c(ncn2CCOC(=O)c2ccc[n+]([C@@H]3O[C@H](CO)[C@@H](O)[C@H]3O)c2)n(C)c1=O.O=S(=O)([O-])C(F)(F)F` [Compound 2, 1-((2R,3R,4S,5R)-3,4-dihydroxy-5-(hydroxymethyl)tetrahydrofuran-2-yl)-3-((2-(1,3-dimethyl-2,6-dioxo-1,2,3,6-tetrahydro-7H-purin-7-yl)ethoxy)carbonyl)pyridin-1-ium trifluoromethanesulfonate], the “NAD Elevation Assay” value with Jurkat cells is 2.9× @ 1. With `Cn1cnc2c1c(=O)n(CCCOC(=O)c1ccc[n+]([C@@H]3O[C@H](COP(=O)([O-])O)[C@@H](O)[C@H]3O)c1)c(=O)n2C` [Compound 5P, ((2R,3S,4R,5R)-5-(3-((3-(3,7-dimethyl-2,6-dioxo-2,3,6,7-tetrahydro-1H-purin-1-yl)propoxy)carbonyl)pyridin-1-ium-1-yl)-3,4-dihydroxytetrahydrofuran-2-yl)methyl hydrogen phosphate], the “NAD Elevation Assay” value in the assay on NDF Cells amounted to 2.2× @ 0.25. Same read-out and setting: under `Cn1c(=O)c2c(ncn2CC(=O)OCCCOC(=O)c2ccc[n+]([C@@H]3O[C@H](COP(=O)([O-])O)[C@@H](O)[C@H]3O)c2)n(C)c1=O` [Compound 6P, ((2R,3S,4R,5R)-5-(3-((3-(2-(1,3-dimethyl-2,6-dioxo-1,2,3,6-tetrahydro-7H-purin-7-yl)acetoxy)propoxy)carbonyl)pyridin-1-ium-1-yl)-3,4-dihydroxytetrahydrofuran-2-yl)methyl hydrogen phosphate] stands 2.0× @ 0.25; under `CCCn1cnc2c1c(=O)n(CCOC(=O)c1ccc[n+]([C@@H]3O[C@H](COP(=O)([O-])O)[C@@H](O)[C@H]3O)c1)c(=O)n2C` [Compound 7P, ((2R,3 S,4R,5R)-3,4-dihydroxy-5-(3-((2-(3-methyl-2,6-dioxo-7-propyl-2,3,6,7-tetrahydro-1H-purin-1-yl)ethoxy)carbonyl)pyridin-1-ium-1-yl)tetrahydrofuran-2-yl)methyl hydrogen phosphate], 1.9× @ 0.25.
